According to patent publication US7196110B2, “N-substituted tricyclic 3-aminopyrazoles as inhibitors for the treatment of cell proliferative disorders” (Janssen Phamaceutica N.V., priority 2002, dated 2007):

Target: T1, PDGF-receptor beta enzyme comprising the tyrosine kinase domain (Homo sapiens, UniProt P09619)
T1 construct: from amino acid 545 to 1106 of GenBank Access NO: AAA36427
Assay: Inhibition of PDGF-receptor kinase activity (cell-free, PLC1 peptide, 33P Flashplate)
Format: biochemical
Settings: PDGF-R kinase activity; for inhibition at 10 µM: compound at 10 uM, read-out: Percent Inhibition @ 10 uM; for IC50: read-out: IC50
Outline: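 Recombinant kinase domain (aa 545–1106) phosphorylated a biotinylated PLC1 peptide with 5 μM ATP plus 33P-γ-ATP, in Tris pH 8, MgCl2, Na3VO4 and 1 mM DTT, for 60 min at 30 °C. Retained 33P was counted after washing. IC50 is the concentration halving activity versus no-inhibitor reactions.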

T1 sequence (P09619 545-1106): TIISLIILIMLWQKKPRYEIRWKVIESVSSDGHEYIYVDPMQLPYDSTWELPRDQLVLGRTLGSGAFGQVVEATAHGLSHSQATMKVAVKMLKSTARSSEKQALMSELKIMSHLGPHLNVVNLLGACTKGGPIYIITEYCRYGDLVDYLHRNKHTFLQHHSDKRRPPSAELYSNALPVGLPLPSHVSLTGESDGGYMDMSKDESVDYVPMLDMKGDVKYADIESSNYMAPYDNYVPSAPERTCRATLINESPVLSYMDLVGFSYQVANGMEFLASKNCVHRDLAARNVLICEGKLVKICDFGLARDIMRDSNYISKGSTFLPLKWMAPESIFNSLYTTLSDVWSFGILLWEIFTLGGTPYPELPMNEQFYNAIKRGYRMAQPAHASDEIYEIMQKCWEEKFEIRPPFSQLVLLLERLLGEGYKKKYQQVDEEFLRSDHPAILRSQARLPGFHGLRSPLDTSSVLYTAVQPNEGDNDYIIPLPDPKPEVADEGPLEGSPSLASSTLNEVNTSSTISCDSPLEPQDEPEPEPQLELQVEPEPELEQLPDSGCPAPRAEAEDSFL

Row | SMILES | inhibition at 10 µM | IC50
1 | COc1cc2c(cc1OC)-c1n[nH]c(Nc3ccc(F)c(C(F)(F)F)c3)c1C2 [Compound 212, (6,7-Dimethoxy-2,4-dihydro-indeno[1,2-c]pyrazol-3-yl)-(4-fluoro-3-trifluoromethyl-phenyl)-amine] | 84% | 775 nM
2 | COc1cc2c(cc1OCCCN1CCN(C)CC1)Cc1c-2n[nH]c1Nc1cccc(Cl)c1 [Compound 213, (3-Chloro-phenyl)-{7-methoxy-6-[3-(4-methyl-piperazin-1-yl)-propoxy]-2,4-dihydro-indeno[1,2-c]pyrazol-3-yl}-amine] | 82% | 2.7 nM
3 | COc1cc2c(cc1OCCCN1CCN(C)CC1)Cc1c-2n[nH]c1Nc1ccc(F)c(Cl)c1 [Compound 214, (3-Chloro-4-fluoro-phenyl)-{7-methoxy-6-[3-(4-methyl-piperazin-1-yl)-propoxy]-2,4-dihydro-indeno[1,2-c]pyrazol-3-yl}-amine] | 46% | –
4 | COc1cccc(Nc2[nH]nc3c2Cc2cc(OCCCN4CCN(C)CC4)c(OC)cc2-3)c1 [Compound 215, {7-Methoxy-6-[3-(4-methyl-piperazin-1-yl)-propoxy]-2,4-dihydro-indeno[1,2-c]pyrazol-3-yl}-(3-methoxy-phenyl)-amine] | 99% | 5.7 nM
5 | COc1cc2c(cc1OCCCN1CCN(C)CC1)Cc1c-2n[nH]c1Nc1cccc(F)c1 [Compound 216, (3-Fluoro-phenyl)-{7-methoxy-6-[3-(4-methyl-piperazin-1-yl)-propoxy]-2,4-dihydro-indeno[1,2-c]pyrazol-3-yl}-amine] | 100% | 5.8 nM
6 | CN(C)CCCOc1ccc2c(c1)Cc1c-2n[nH]c1Nc1ccc(OC(F)(F)F)cc1 [Compound 217, [6-(3-Dimethylamino-propoxy)-2,4-dihydro-indeno[1,2-c]pyrazol-3-yl]-(4-trifluoromethoxy-phenyl)-amine] | 51% | 3480 nM
7 | COc1cc2c(cc1OC)-c1n[nH]c(NCc3ccc(Cl)c(Cl)c3)c1C2 [Compound 219, (3,4-Dichloro-benzyl)-(6,7-dimethoxy-2,4-dihydro-indeno[1,2-c]pyrazol-3-yl)-amine] | 39% | –
8 | COc1cc2c(cc1OC)-c1n[nH]c(NCC3CCCCC3)c1C2 [Compound 220, Cyclohexylmethyl-(6,7-dimethoxy-2,4-dihydro-indeno[1,2-c]pyrazol-3-yl)-amine] | 73% | 3290 nM
9 | COc1cc2c(cc1OC)-c1n[nH]c(Nc3ccc(S(=O)(=O)C4CCNCC4)cc3)c1C2 [Compound 221, (6,7-Dimethoxy-2,4-dihydro-indeno[1,2-c]pyrazol-3-yl)-[4-(piperidine-4-sulfonyl)-phenyl]-amine] | 71% | 1600 nM
10 | COc1cc2c(cc1OC)-c1n[nH]c(NCc3ccc(C)cc3)c1C2 [Compound 222, (6,7-Dimethoxy-2,4-dihydro-indeno[1,2-c]pyrazol-3-yl)-(4-methyl-benzyl)-amine] | 70% | 806 nM
11 | COc1cc2c(cc1OC)-c1n[nH]c(NCc3ccccc3C)c1C2 [Compound 223, (6,7-Dimethoxy-2,4-dihydro-indeno[1,2-c]pyrazol-3-yl)-(2-methyl-benzyl)-amine] | 97% | 45.9 nM
12 | COc1ccccc1CNc1[nH]nc2c1Cc1cc(OC)c(OC)cc1-2 [Compound 224, (6,7-Dimethoxy-2,4-dihydro-indeno[1,2-c]pyrazol-3-yl)-(2-methoxy-benzyl)-amine] | 24% | –
13 | COc1cccc(CNc2[nH]nc3c2Cc2cc(OC)c(OC)cc2-3)c1 [Compound 225, (6,7-Dimethoxy-2,4-dihydro-indeno[1,2-c]pyrazol-3-yl)-(3-methoxy-benzyl)-amine] | 90% | 74.4 nM
14 | COc1cc2c(cc1OC)-c1n[nH]c(NCc3ccccc3Cl)c1C2 [Compound 230, (2-Chloro-benzyl)-(6,7-dimethoxy-2,4-dihydro-indeno[1,2-c]pyrazol-3-yl)-amine] | 90% | 1.9 nM
15 | COc1ccc(CNc2[nH]nc3c2Cc2cc(OC)c(OC)cc2-3)cc1 [Compound 231, (6,7-Dimethoxy-2,4-dihydro-indeno[1,2-c]pyrazol-3-yl)-(4-methoxy-benzyl)-amine] | 37% | –
16 | COc1cccc(Nc2n[nH]c3c2Cc2sccc2-3)c1 [Compound 232, (5,7-Dihydro-1-thia-4,5-diaza-cyclopenta[a]pentalen-6-yl)-(3-methoxy-phenyl)-amine] | 102% | 39.6 nM
17 | COc1cccc(Nc2[nH]nc3c2Cc2cc(F)ccc2-3)c1 [Compound 234, (6-Fluoro-2,4-dihydro-indeno[1,2-c]pyrazol-3-yl)-(3-methoxy-phenyl)-amine] | 101% | 358 nM
18 | Fc1cccc(Nc2[nH]nc3c2Cc2cc(F)ccc2-3)c1 [Compound 235, (6-Fluoro-2,4-dihydro-indeno[1,2-c]pyrazol-3-yl)-(3-fluoro-phenyl)-amine] | 86% | 211 nM

Row | SMILES | inhibition at 10 µM | IC50
19 | Fc1ccc2c(c1)Cc1c-2n[nH]c1Nc1cc(F)ccc1F [Compound 236, (2,5-Difluoro-phenyl)-(6-fluoro-2,4-dihydro-indeno[1,2-c]pyrazol-3-yl)-amine] | 82% | 5 nM
20 | Fc1ccc2c(c1)Cc1c-2n[nH]c1Nc1ccc(C(F)(F)F)cc1 [Compound 237, (6-Fluoro-2,4-dihydro-indeno[1,2-c]pyrazol-3-yl)-(4-trifluoromethyl-phenyl)-amine] | 88% | 50 nM
21 | Fc1ccc2c(c1)Cc1c-2n[nH]c1Nc1ccc(OC(F)(F)F)cc1 [Compound 238, (6-Fluoro-2,4-dihydro-indeno[1,2-c]pyrazol-3-yl)-(4-trifluoromethoxy-phenyl)-amine] | 87% | 419 nM
22 | Fc1ccc2c(c1)Cc1c-2n[nH]c1Nc1cc(C(F)(F)F)cc(C(F)(F)F)c1 [Compound 239, (3,5-Bis-trifluoromethyl-phenyl)-(6-fluoro-2,4-dihydro-indeno[1,2-c]pyrazol-3-yl)-amine] | 91% | 138 nM
23 | Cc1cccc(Nc2[nH]nc3c2Cc2cc(F)ccc2-3)c1 [Compound 240, (6-Fluoro-2,4-dihydro-indeno[1,2-c]pyrazol-3-yl)-m-tolyl-amine] | 92% | 2 nM
24 | COCCCOc1cc2c(cc1OC)-c1n[nH]c(Nc3cccc(F)c3)c1C2 [Compound 242, (3-Fluoro-phenyl)-[7-methoxy-6-(3-methoxy-propoxy)-2,4-dihydro-indeno[1,2-c]pyrazol-3-yl]-amine] | 104% | 13 nM
25 | COCCCOc1cc2c(cc1OC)-c1n[nH]c(Nc3cccc(OC)c3)c1C2 [Compound 244, [7-Methoxy-6-(3-methoxy-propoxy)-2,4-dihydro-indeno[1,2-c]pyrazol-3-yl]-(3-methoxy-phenyl)-amine] | 101% | 0.2 nM
26 | CCOc1cc2c(cc1OCC)-c1n[nH]c(Nc3cccc(OC)c3)c1C2 [Compound 245, (6,7-Diethoxy-2,4-dihydro-indeno[1,2-c]pyrazol-3-yl)-(3-methoxy-phenyl)-amine] | 87% | 1 nM
27 | CCOc1cc2c(cc1OCC)-c1n[nH]c(Nc3ccc(F)c(Cl)c3)c1C2 [Compound 246, (3-Chloro-4-fluoro-phenyl)-(6,7-dioethoxy-2,4-dihydro-indeno[1,2-c]pyrazol-3-yl)-amine] | 77% | 12.1 nM
28 | COc1cc2c(cc1OC)C(C)c1c-2n[nH]c1Nc1ccc(F)cc1 (centres unmarked) [Compound 248, (6,7-Dimethoxy-4-methyl-2,4-dihydro-indeno[1,2-c]pyrazol-3-yl)-(4-fluoro-phenyl)-amine] | 68% | 410 nM
29 | COc1cc2c(cc1OC)C(C)c1c-2n[nH]c1Nc1ccc(F)c(Cl)c1 (centres unmarked) [Compound 250, (3-Chloro-4-fluoro-phenyl)-(6,7-dimethoxy-4-methyl-2,4-dihydro-indeno[1,2-c]pyrazol-3-yl)-amine] | 88% | 223 nM
30 | COc1cc2c(cc1OC)C(C)c1c-2n[nH]c1Nc1cc(F)cc(F)c1 (centres unmarked) [Compound 251, (3,5-Difluoro-phenyl)-(6,7-dimethoxy-4-methyl-2,4-dihydro-indeno[1,2-c]pyrazol-3-yl)-amine] | 84% | 322 nM
31 | COc1cc2c(cc1OC)C(C)c1c-2n[nH]c1Nc1cc(F)ccc1F (centres unmarked) [Compound 252, (2,5-Difluoro-phenyl)-(6,7-dimethoxy-4-methyl-2,4-dihydro-indeno[1,2-c]pyrazol-3-yl)-amine] | 16% | –
32 | COc1cc2c(cc1OC)C(C)c1c-2n[nH]c1Nc1cccc(OCc2ccccc2)c1 (centres unmarked) [Compound 254, (3-Benzyloxy-phenyl)-(6,7-dimethoxy-4-methyl-2,4-dihydro-indeno[1,2-c]pyrazol-3-yl)-amine] | 89% | 181 nM
33 | COc1cc2c(cc1OC)C(C)c1c-2n[nH]c1Nc1cccc(SC)c1 (centres unmarked) [Compound 255, (6,7-Dimethoxy-4-methyl-2,4-dihydro-indeno[1,2-c]pyrazol-3-yl)-(3-methylsulfanyl-phenyl)-amine] | 90% | 162 nM
34 | COc1cc2c(cc1OC)C(C)c1c-2n[nH]c1Nc1cccc(Cl)c1 (centres unmarked) [Compound 257, (3-Chloro-phenyl)-(6,7-dimethoxy-4-methyl-2,4-dihydro-indeno[1,2-c]pyrazol-3-yl)-amine] | 35% | –
35 | COc1ccc(OC)c(Nc2[nH]nc3c2C(C)c2cc(OC)c(OC)cc2-3)c1 (centres unmarked) [Compound 258, (6,7-Dimethoxy-4-methyl-2,4-dihydro-indeno[1,2-c]pyrazol-3-yl)-(2,5-dimethoxy-phenyl)-amine] | 39% | –
36 | COc1cc2c(cc1OCC(O)CO)Cc1c-2n[nH]c1Nc1cccc(Cl)c1 (centres unmarked) [Compound 259] | 93% | 2.04 nM
